Data on 30 compounds can be found in patent US20240150339A1, “Compounds and Their Use as PDE4 Activators” (Mironid Limited, priority 2021, published 2024).

One assay relates to m-IMCD3 cells. In words: Inhibition of PGE2-stimulated in vitro cyst formation in 3D culture of m-IMCD3 cells. The note with it: Mus musculus, mIMCD3, 144 h; 10 μM test compound; mean cyst area (%) compared to 100% for (DMSO + PGE2) and 0% for DMSO control; 100 nM PGE2; 6 days; read-out: % Cyst area after incubation with 10 μM test compound. The class given is cell-based, mouse. As to the method:
HEK 293 and MDCK cells (Public Health England, Cell Culture Collections) were maintained in Dulbecco's Modified Eagle's Medium (DMEM) supplemented with 10% (v/v) fetal bovine serum (FBS) (Seralab), 2 mM L-glutamine and 100 U/ml penicillin streptomycin cocktail (ThermoFisher); termed complete media. Clonal HEK 293 cell lines were maintained in complete media supplemented with 0.6 mg/mL G418 (Enzo Life Sciences). Mouse inner medullary collecting duct (m-IMCD3) cells [American Type Culture Collection (ATCC)] were maintained in media consisting of DMEM/Hams F-12 50/50 Mix (DMEM F12; Corning) supplemented with penicillin streptomycin cocktail (100 U/ml) and FBS (10% v/v) (DMEM F12-10% FBS).
The mouse Inner Medullary Collecting Duct cell line (m-IMCD3) spontaneously forms cystic spheroids in 3D culture with a Type 1 collagen/Matrigel extracellular matrix. This process can be stimulated with agents which raise intracellular cAMP, such as PGE2, and is used as an in vitro model for the formation of cystic structures in the kidneys of patients with ADPKD.
Rat Collagen I (Fisher Scientific) is prepared on ice by neutralising with 1M NaOH and diluting with a 2×volume of DMEM/F12+10% FBS for coating plate (coating mix) and a 2.2 volume of DMEM/F12+10% FBS for cell plating (plating mix). This is mixed 1:1.1 with ice cold Matrigel (Corning) for coating plates (coating mix), and 1:0.95 with Matrigel for cell plating (plating mix).
The assay is conducted in the wells of a 96-well plate culture dish using a total volume of 130 μl of collagen/Matrigel/DMEM F12-10% FBS suspension in growth media for each matrix plug per individual well. Initially, 30 μl of collagen/Matrigel/DMEM F12-10% FBS (coating mix) is added into the well of a 96 well plate and the collagen is set to a gel by incubating at 37° C. for at least 15 minutes. A second layer of 100 μl collagen/Matrigel suspension (plating mix) containing m-IMCD3 cells (2.75×10^6 m-IMCD3 cells per 96-well plate) is layered over the coating mix and the collagen/Matrigel/cell mix again set to a gel by incubating at 37° C. Cell cultures are maintained at 37° C. in an atmosphere of 5% CO2, 95% air.
Between 18 and 24h after plating, test compound(s) as DMSO stock solutions [0.1% (v/v) final DMSO concentration] and PGE2 (100 nM final concentration) in DMEM F12-10% FBS are added in quadruplicate wells per condition. Media, togetherwith the test compound and PGE2 are replenished after 2 or 3 days. After 6 days of culture z stack images of the wells are captured using the Nikon Eclipse Ti2-E microscope. Nikon General Analysis software is used to measure the following parameters in each well: the mean cyst area, the number of cysts, and the total cyst area.
PDE4 long form activators inhibited in vitro cyst formation in m-IMCD3 cells. Data are shown in FIG. 2 and Table 5 as mean cyst area (%), compared to 100% for (DMSO+PGE2) and 0% for DMSO control.
As to `O=C(NCc1ccc(F)cc1)c1ccc2nc(C3CCNCC3)sc2c1` [Example 124, N-(4-fluorobenzyl)-2-(piperidin-4-yl)benzo[d]thiazole-6-carboxamide], the activity at 10 µM was determined as 11%.

For the compound `O=C(N[C@H]1CCc2ccccc21)c1ccc2nc(C3CCNCC3)sc2c1` [Example 127, (S)-N-(2,3-dihydro-1H-inden-1-yl)-2-(piperidin-4-yl)benzo[d]thiazole-6-carboxamide], the activity at 10 µM stood at 13%. `O=C(N[C@@H]1c2ccccc2C[C@H]1O)c1ccc2nc(C3CCNCC3)sc2c1` [Example 128, N-((1R,2R)-2-hydroxy-2,3-dihydro-1H-inden-1-yl)-2-(piperidin-4-yl)benzo[d]thiazole-6-carboxamide]: the activity at 10 µM stood at 3%. Consider `O=C(N[C@@H]1c2ccccc2C[C@@H]1O)c1ccc2nc(C3CCNCC3)sc2c1` [Example 130, N-((1R,2S)-2-hydroxy-2,3-dihydro-1H-inden-1-yl)-2-(piperidin-4-yl)benzo[d]thiazole-6-carboxamide], for which the activity at 10 µM was -2%. On to `O=C(NC1CCCC1)c1ccc2nc(C3CCNCC3)sc2c1` [Example 134, N-cyclopentyl-2-(piperidin-4-yl)benzo[d]thiazole-6-carboxamide], for which the activity at 10 µM amounted to 16%. `O=C(NC1CCOCC1)c1ccc2nc(C3CCNCC3)sc2c1` [Example 138, 2-(piperidin-4-yl)-N-(tetrahydro-2H-pyran-4-yl)benzo[d]thiazole-6-carboxamide]: the activity at 10 µM is 20%. Consider `CCN1CCC(c2nc3ccc(C(=O)N[C@@H]4c5ccccc5C[C@@H]4O)cc3s2)CC1` [Example 166, 2-(1-ethylpiperidin-4-yl)-N-((1R,2S)-2-hydroxy-2,3-dihydro-1H-inden-1-yl)benzo[d]thiazole-6-carboxamide], for which the activity at 10 µM was -10%. Take `O=C(NC1CCCC1)c1ccc2nc(C3CCN(CCO)CC3)sc2c1` [Example 171, N-cyclopentyl-2-(1-(2-hydroxyethyl)piperidin-4-yl)benzo[d]thiazole-6-carboxamide]: the activity at 10 µM worked out at 13%. Same read-out and setting: for `COCCOCCN1CCC(c2nc3ccc(C(=O)N[C@H]4CCOc5ccccc54)cc3s2)CC1` [Example 175, (S)-N-(chroman-4-yl)-2-(1-(2-(2-methoxyethoxy)ethyl)piperidin-4-yl)benzo[d]thiazole-6-carboxamide] the value was -14%. `Cc1cc(C(=O)NC2CCCC2)cc2sc(C3CCNCC3)nc12` [Example 181, N-cyclopentyl-4-methyl-2-(piperidin-4-yl)benzo[d]thiazole-6-carboxamide]: the activity at 10 µM was 13%. On to `Cc1cc(C(=O)N[C@H]2CCOc3ccccc32)cc2sc(C3CCNCC3)nc12` [Example 186, (S)-N-(chroman-4-yl)-4-methyl-2-(piperidin-4-yl)benzo[d]thiazole-6-carboxamide], for which the activity at 10 µM came out at 4%. Consider `CCN1CCC(c2nc3cc(C)c(C(=O)N[C@H]4CCOc5ccccc54)cc3s2)CC1` [Example 191, (S)-N-(chroman-4-yl)-2-(1-ethylpiperidin-4-yl)-5-methylbenzo[d]thiazole-6-carboxamide], for which the activity at 10 µM stood at 3%. As to `CCN1CCC(c2nc3ccc(C(=O)NC4CCCC4)c(C)c3s2)CC1` [Example 193, N-cyclopentyl-2-(1-ethylpiperidin-4-yl)-7-methylbenzo[d]thiazole-6-carboxamide], the activity at 10 µM is 2%. On the same count and under the same terms, for `CCN1CCC(c2nc3ccc(C(=O)N[C@H]4CCc5ccccc54)c(C)c3s2)CC1` [Example 196, (S)-N-(2,3-dihydro-1H-inden-1-yl)-2-(1-ethylpiperidin-4-vy)-7-methylbenzo[d]thiazole-6-carboxamide] the value was 10%; for `COc1cc2nc(C3CCNCC3)sc2cc1C(=O)NC1CCOCC1` [Example 200, 5-methoxy-2-(piperidin-4-yl)-N-(tetrahydro-2H-pyran-4-yl)benzo[d]thiazole-6-carboxamide], 3%.

With `Cc1cc(C(=O)NC2CCCC2)cc2sc(N3CCNCC3)nc12` [Example 206, N-cyclopentyl-4-methyl-2-(piperazin-1-yl)benzo[d]thiazole-6-carboxamide], the activity at 10 µM stood at 14%. Take `CCN1CCN(c2nc3c(C)cc(C(=O)NC4CCOCC4)cc3s2)CC1` [Example 210, 2-(4-ethylpiperazin-1-yl)-4-methyl-N-(tetrahydro-2H-pyran-4-yl)benzo[d]thiazole-6-carboxamide]: the activity at 10 µM was determined as 3%.

`Cc1c(C(=O)N[C@H]2CCOc3ccccc32)ccc2nc(N3CCNCC3)sc12` [Example 219, (S)-N-(chroman-4-yl)-7-methyl-2-(piperazin-1-yl)benzo[d]thiazole-6-carboxamide]: the activity at 10 µM is 2%. Turning to `CCN1CCN(c2nc3c(OC)cc(C(=O)NC4CCCC4)cc3s2)CC1` [Example 222, N-cyclopentyl-2-(4-ethylpiperazin-1-yl)-4-methoxybenzo[d]thiazole-6-carboxamide], the activity at 10 µM was 1%. Turning to `COc1cc2nc(N3CCNCC3)sc2cc1C(=O)N[C@H]1CCc2ccccc21` [Example 224, (S)-N-(2,3-dihydro-1H-inden-1-yl)-5-methoxy-2-(piperazin-1-yl)benzo[d]thiazole-6-carboxamide], the activity at 10 µM came out at 8%. `Cc1cc(C(=O)N[C@H]2CCOc3ccccc32)c(C)c2sc(C3CCNCC3)nc12` [Example 230, (S)-N-(chroman-4-yl)-4,7-dimethyl-2-(piperidin-4-yl)benzo[d]thiazole-6-carboxamide]: the activity at 10 µM was determined as 25%.

In the case of `CN1CCC(c2nc3c(Cl)cc(C(=O)NC4CCCC4)cc3s2)CC1` [Example 231, 4-chloro-N-cyclopentyl-2-(1-methylpiperidin-4-yl)benzo[d]thiazole-6-carboxamide], the activity at 10 µM is 1%.

For `CC(C)NC(=O)c1cc(C2CC2)c2nc(C3CCNCC3)sc2c1` [Example 232, 4-cyclopropyl-N-isopropyl-2-(piperidin-4-yl)benzo[d]thiazole-6-carboxamide], the activity at 10 µM is -2%. Consider `O=C(NC1CCC1)c1cc(Cl)c2nc(N3CCNCC3)sc2c1` [Example 234, 4-chloro-N-cyclobutyl-2-(piperazin-1-yl)benzo[d]thiazole-6-carboxamide], for which the activity at 10 µM was determined as 3%. In the case of `O=C(NC1CCCC1)c1cc(Br)c2nc(N3C4CCC3CNC4)sc2c1` [Example 237, 2-(3,8-diazabicyclo[3.2.1]octan-8-yl)-4-bromo-N-cyclopentylbenzo[d]thiazole-6-carboxamide], the activity at 10 µM was 11%. For `O=C(NC1CCC(F)(F)CC1)c1ccc2nc(N3C4CCC3CN(CCCO)C4)sc2c1` [Example 243, N-(4,4-difluorocyclohexyl)-2-(3-(3-hydroxypropyl)-3,8-diazabicyclo[3.2.1]octan-8-yl)benzo[d]thiazole-6-carboxamide], the activity at 10 µM was 6%.

As to `CC(CO)c1cc(C(=O)NC2CCCC2)cc2sc(N3C4CCC3CNC4)nc12` (stereo not shown) [Example 249, N-cyclopentyl-2-(3,8-diazabicyclo[3.2.1]octan-8-yl)-4-(1-hydroxypropan-2-yl)-benzo[d]thiazole-6-carboxamide], the activity at 10 µM stood at 9%. Turning to `O=C(NC1CCCC1)c1ccc2nc(N3CC4(CNC4)C3)sc2c1` [Example 255, N-cyclopentyl-2-(2,6-diazaspiro[3.3]heptan-2-yl)benzo[d]thiazole-6-carboxamide], the activity at 10 µM stood at 11%. Same read-out and setting: then `O=C(NC1CCCC1)c1ccc2nc(N3CCCC4NCCC43)sc2c1` (stereo not shown) [Example 258, N-cyclopentyl-2-(octahydro-4H-pyrrolo[3,2-b]pyridin-4-yl)benzo[d]thiazole-6-carboxamide], with 11%; and `CN1C[C@@H]2CN(c3nc4ccc(C(=O)NC5CCCCC5)cc4s3)C[C@@H]2C1` [Example 261, N-cyclohexyl-2-((3aR,6aS)-5-methylhexahydropyrrolo[3,4-c]pyrrol-2 (1H)-yl)benzo[d]thiazole-6-carboxamide], with 3%.

The same assay, now with this note: result in words.
Regarding `CCN1CCC(c2nc3cc(C)c(C(=O)N[C@H]4CCOc5ccccc54)cc3s2)CC1` [Example 191, (S)-N-(chroman-4-yl)-2-(1-ethylpiperidin-4-yl)-5-methylbenzo[d]thiazole-6-carboxamide], the “Inhibition of PGE2-stimulated cyst formation in 3D culture of m-IMCD3 cells (FIG. 2)” value is reported as “concentration-dependent inhibition”.
